Active and inactive are the calls of the source. The rule behind the calls is not given here.
Columns and labels:
[1] = biological target: T1, Phosphatidylinositol 4,5-bisphosphate 3-kinase catalytic subunit delta isoform (Homo sapiens, UniProt O00329); assay: Inhibition of human recombinant PI3Kdelta using PIP2 by Kinase-Glo Plus assay
T1 sequence (O00329 whole entry): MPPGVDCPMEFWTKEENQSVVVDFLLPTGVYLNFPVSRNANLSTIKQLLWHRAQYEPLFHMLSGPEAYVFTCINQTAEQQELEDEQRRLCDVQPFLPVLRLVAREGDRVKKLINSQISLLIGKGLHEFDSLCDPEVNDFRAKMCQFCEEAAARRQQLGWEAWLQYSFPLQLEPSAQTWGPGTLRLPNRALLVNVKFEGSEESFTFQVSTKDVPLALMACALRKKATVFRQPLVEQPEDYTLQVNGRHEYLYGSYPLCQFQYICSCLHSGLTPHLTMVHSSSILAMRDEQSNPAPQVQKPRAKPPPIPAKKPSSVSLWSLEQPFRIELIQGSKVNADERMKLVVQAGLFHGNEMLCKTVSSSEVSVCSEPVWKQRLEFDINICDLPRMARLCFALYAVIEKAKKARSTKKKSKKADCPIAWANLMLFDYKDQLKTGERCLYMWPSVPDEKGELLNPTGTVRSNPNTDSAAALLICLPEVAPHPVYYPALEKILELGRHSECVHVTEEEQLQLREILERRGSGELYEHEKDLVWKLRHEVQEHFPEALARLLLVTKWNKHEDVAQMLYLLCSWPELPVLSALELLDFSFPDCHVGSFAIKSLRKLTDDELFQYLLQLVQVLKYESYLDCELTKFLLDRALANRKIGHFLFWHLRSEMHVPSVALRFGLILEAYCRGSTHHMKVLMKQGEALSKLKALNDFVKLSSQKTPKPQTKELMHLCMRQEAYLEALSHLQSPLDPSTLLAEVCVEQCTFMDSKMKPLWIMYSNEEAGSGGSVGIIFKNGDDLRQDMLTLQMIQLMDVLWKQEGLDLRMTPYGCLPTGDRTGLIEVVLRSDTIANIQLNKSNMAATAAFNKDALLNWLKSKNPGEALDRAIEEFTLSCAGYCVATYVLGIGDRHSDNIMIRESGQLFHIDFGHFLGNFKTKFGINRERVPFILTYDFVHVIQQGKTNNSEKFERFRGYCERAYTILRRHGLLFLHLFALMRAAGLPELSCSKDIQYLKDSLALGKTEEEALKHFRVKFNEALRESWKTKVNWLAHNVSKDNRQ

Mus musculus [2] = assay: Intrinsic clearance in mouse at 5 umol/kg, iv administered as bolus dose in 20 to 30% DMA in PBS; assay type: ADME, organism-based; conditions: in vivo
[3] = Volume of distribution in dog at 5 umol/kg, iv administered as bolus dose in 20 to 30% DMA in PBS; assay type: ADME, organism-based, Canis lupus familiaris; conditions: in vivo
[4] = biological target: T2, Phosphatidylinositol 4,5-bisphosphate 3-kinase catalytic subunit beta isoform (Homo sapiens, UniProt P42338); assay: Inhibition of human recombinant PI3Kbeta using PIP2 by Kinase-Glo Plus assay
T2 sequence (P42338 whole entry, canonical isoform): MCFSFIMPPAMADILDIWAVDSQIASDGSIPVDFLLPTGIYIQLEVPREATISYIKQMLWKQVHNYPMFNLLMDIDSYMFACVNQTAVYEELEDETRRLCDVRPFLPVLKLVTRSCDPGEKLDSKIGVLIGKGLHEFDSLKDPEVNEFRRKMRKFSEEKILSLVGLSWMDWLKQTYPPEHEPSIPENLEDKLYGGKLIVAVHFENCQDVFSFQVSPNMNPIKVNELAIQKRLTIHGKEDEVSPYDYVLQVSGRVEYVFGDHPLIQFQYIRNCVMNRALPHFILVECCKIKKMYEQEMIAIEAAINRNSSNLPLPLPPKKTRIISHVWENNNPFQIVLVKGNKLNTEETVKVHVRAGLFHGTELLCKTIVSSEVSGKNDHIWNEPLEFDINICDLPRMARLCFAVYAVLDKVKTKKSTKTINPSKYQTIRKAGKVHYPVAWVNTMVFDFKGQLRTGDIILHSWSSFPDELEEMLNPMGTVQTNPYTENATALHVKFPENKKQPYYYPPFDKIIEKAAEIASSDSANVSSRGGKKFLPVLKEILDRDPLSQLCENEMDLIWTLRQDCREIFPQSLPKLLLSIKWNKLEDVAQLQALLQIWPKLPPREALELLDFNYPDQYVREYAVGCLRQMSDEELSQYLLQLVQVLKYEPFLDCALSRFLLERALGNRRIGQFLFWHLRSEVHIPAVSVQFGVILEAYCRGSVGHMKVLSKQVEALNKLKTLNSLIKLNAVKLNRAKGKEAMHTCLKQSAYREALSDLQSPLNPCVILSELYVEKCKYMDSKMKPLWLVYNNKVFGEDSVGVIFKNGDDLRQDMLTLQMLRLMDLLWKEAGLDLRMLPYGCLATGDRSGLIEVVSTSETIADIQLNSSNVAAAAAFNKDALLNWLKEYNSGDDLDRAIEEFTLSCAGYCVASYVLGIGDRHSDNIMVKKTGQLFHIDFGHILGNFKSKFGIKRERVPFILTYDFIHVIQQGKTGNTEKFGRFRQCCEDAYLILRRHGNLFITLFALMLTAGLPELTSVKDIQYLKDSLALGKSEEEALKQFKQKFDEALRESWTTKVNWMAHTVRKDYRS

[5] = Volume of distribution in mouse at 5 umol/kg, iv administered as bolus dose in 20 to 30% DMA in PBS; assay type: ADME, organism-based; conditions: in vivo
[6] = Apparent permeability from apical to basolateral side of human Caco2 cells; assay type: ADME, cell-based; conditions: Caco-2, read-out: permeability
[7] = Fraction unbound in dog plasma; assay type: ADME, cell-free, Canis lupus familiaris
[8] = biological target: Phosphatidylinositol 4,5-bisphosphate 3-kinase catalytic subunit gamma isoform (Homo sapiens, UniProt P48736); assay: Inhibition of human recombinant PI3Kgamma using PIP2 by Kinase-Glo Plus assay
Sequence of Phosphatidylinositol 4,5-bisphosphate 3-kinase catalytic subunit gamma isoform (P48736 whole entry, canonical isoform): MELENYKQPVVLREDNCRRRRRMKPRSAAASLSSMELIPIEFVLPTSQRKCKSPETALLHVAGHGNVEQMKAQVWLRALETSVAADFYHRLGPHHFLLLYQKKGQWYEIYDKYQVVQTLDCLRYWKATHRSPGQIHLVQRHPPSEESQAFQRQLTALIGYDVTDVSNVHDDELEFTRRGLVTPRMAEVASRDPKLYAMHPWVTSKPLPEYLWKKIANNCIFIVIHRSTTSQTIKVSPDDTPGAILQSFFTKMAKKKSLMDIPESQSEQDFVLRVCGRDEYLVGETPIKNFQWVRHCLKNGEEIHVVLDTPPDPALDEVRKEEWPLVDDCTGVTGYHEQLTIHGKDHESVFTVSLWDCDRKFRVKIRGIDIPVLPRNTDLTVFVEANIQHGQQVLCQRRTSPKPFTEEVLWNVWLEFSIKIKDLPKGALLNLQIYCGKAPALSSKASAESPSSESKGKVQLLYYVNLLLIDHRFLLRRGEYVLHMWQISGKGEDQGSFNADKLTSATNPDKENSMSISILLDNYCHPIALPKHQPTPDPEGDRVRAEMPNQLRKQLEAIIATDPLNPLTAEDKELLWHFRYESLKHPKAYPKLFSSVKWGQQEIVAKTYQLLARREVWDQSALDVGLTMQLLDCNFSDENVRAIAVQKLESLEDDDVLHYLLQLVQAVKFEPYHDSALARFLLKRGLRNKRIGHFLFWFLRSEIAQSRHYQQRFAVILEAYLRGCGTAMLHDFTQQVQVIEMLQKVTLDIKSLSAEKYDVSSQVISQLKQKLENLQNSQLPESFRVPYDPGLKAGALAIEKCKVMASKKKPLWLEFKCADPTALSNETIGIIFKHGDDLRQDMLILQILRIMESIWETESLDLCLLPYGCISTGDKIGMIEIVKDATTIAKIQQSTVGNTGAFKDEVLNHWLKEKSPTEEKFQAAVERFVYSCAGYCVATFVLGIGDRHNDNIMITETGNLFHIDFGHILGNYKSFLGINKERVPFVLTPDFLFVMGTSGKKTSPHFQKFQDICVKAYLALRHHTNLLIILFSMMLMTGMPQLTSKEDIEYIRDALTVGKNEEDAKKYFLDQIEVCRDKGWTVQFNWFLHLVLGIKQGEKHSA

[9] = AUC in mouse at 30 umol/kg, po administered as propylene glycol; assay type: ADME, organism-based; conditions: plasma
[10] = Fraction unbound in human plasma; assay type: ADME, cell-free
[11] = Fraction unbound in mouse plasma; assay type: ADME, cell-free
[12] = Clearance in mouse at 5 umol/kg, iv administered as bolus dose in 20 to 30% DMA in PBS; assay type: ADME, organism-based; conditions: in vivo
[13] = Intrinsic clearance in cryopreserved human hepatocytes measured per 10^6 cells; assay type: ADME, cell-based, Hepatocyte; conditions: read-out: CLH
[14] = Lipophilicity, log D of the compound at pH 7.4 by shake-flask method; assay type: physicochemical; conditions: buffer
[15] = Clearance in dog at 5 umol/kg, iv administered as bolus dose in 20 to 30% DMA in PBS; assay type: ADME, organism-based, Canis lupus familiaris; conditions: in vivo
[16] = biological target: T3, Phosphatidylinositol 4,5-bisphosphate 3-kinase catalytic subunit alpha isoform (Homo sapiens, UniProt P42336); assay: Inhibition of PI3Kalpha mutant human BT474 cells assessed as inhibition of Akt phosphorylation at […] after 2 hrs; assay type: cell-based; conditions: bt-474
Target sequence in this assay (P42336 whole entry, looked up, canonical isoform): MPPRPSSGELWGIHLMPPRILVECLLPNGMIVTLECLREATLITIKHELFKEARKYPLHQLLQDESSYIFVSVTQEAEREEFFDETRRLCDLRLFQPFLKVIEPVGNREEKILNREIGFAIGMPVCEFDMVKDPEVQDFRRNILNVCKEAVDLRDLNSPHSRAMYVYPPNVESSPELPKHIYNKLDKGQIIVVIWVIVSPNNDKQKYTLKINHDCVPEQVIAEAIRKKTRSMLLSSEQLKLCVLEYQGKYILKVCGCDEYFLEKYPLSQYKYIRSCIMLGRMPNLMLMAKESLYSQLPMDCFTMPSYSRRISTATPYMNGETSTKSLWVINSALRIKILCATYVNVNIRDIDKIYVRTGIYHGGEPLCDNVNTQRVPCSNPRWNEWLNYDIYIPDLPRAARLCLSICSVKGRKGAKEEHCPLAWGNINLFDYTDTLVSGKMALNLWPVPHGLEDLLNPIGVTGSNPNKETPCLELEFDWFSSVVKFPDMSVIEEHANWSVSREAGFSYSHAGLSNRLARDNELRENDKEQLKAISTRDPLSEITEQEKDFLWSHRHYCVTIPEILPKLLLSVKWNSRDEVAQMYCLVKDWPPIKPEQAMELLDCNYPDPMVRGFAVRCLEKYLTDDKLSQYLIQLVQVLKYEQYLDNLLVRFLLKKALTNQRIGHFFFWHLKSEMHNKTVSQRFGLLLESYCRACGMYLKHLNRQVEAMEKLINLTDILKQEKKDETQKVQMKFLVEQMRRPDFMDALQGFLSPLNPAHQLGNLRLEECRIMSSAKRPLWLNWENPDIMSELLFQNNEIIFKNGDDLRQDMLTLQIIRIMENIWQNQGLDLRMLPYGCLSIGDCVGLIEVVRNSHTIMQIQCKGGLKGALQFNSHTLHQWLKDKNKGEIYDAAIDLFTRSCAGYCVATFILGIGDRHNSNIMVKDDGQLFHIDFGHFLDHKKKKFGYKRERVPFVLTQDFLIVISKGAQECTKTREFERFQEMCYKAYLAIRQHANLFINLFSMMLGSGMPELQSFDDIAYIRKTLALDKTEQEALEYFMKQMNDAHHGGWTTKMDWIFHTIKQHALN

[17] = biological target: T2, Phosphatidylinositol 4,5-bisphosphate 3-kinase catalytic subunit beta isoform; assay: Inhibition of PI3Kbeta in PTEN-null human MDA-MB-468 cells assessed as inhibition of Akt phosphorylation after 2 hrs; assay type: cell-based
Canis familiaris = assay: Intrinsic clearance in dog at 5 umol/kg, iv administered as bolus dose in 20 to 30% DMA in PBS; assay type: ADME, organism-based, Canis lupus familiaris; conditions: in vivo
[18] = Oral bioavailability in dog at 30 umol/kg administered as propylene glycol; assay type: ADME, organism-based, Canis lupus familiaris; conditions: in vivo
[19] = biological target: T3, Phosphatidylinositol 4,5-bisphosphate 3-kinase catalytic subunit alpha isoform; assay: Inhibition of human recombinant PI3Kalpha using PIP2 by Kinase-Glo Plus assay
Target sequence in this assay (P42336 whole entry, canonical isoform): as the sequence (P42336 whole entry, looked up, canonical isoform) above

[20] = Oral bioavailability in mouse at 30 umol/kg administered as propylene glycol; assay type: ADME, organism-based; conditions: in vivo
BT-474 = assay: Selectivity ratio of IC50 for human PI3Kbeta in human MDA-MB-468 cells to IC50 for PI3Kalpha in human BT474 cells; assay type: cell-based
[21] = biological target: T4, Voltage-gated inwardly rectifying potassium channel KCNH2 (Homo sapiens, UniProt Q12809); assay: Inhibition of human ERG channel
T4 sequence (Q12809 whole entry): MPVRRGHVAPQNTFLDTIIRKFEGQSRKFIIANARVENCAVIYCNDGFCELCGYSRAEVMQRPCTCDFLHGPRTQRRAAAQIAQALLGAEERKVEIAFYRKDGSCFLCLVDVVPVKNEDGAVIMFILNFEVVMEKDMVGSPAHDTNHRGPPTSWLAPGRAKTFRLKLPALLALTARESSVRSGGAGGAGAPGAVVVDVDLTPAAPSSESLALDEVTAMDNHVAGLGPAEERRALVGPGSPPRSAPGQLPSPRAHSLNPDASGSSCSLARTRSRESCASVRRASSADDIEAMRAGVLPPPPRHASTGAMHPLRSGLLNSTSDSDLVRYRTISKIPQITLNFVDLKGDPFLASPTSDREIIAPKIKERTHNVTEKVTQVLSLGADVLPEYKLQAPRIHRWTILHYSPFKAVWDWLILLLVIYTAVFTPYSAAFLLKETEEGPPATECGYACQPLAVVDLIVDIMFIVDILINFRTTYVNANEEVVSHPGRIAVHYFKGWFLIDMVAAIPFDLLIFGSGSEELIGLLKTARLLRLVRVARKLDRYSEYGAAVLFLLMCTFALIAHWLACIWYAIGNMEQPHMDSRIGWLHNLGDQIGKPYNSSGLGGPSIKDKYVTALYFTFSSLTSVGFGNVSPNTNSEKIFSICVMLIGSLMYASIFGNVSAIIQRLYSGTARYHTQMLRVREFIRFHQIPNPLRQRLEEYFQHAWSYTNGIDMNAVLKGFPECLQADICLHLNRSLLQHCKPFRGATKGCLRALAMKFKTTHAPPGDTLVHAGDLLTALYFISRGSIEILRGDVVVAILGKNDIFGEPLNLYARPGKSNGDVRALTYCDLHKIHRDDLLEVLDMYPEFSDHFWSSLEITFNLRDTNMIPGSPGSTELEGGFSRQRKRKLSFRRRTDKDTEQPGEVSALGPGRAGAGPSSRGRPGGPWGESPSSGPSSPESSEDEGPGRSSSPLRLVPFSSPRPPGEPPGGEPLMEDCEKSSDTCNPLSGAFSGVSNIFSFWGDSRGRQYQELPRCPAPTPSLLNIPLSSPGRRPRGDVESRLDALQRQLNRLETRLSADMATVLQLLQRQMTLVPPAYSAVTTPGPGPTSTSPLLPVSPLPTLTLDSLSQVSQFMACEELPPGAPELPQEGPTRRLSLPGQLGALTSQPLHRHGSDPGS

PC-3 [22] = assay: Antitumor activity against human PC3 cells xenograft mouse model assessed as inhibition of tumor growth at 60 mg/kg, po bid in presence of 1-aminobenzotriazole; assay type: functional, organism-based; set-up: dose 60 mg/kg
[23] = biological target: T1, Phosphatidylinositol 4,5-bisphosphate 3-kinase catalytic subunit delta isoform; assay: Inhibition of PI3Kdelta in human Jeko B cells assessed as inhibition of Akt phosphorylation after 2 hrs; assay type: cell-based
PC-3 [24] = assay: Antitumor activity against human PC3 cells xenograft mouse model assessed as inhibition of tumor growth at 30 mg/kg, po bid in presence of 1-aminobenzotriazole; assay type: functional, organism-based; set-up: dose 30 mg/kg
Mus musculus [25] = assay: Inhibition of Akt phosphorylation at Ser473 in PTEN-deficient human PC3 cells xenograft mouse model at 100 mg/kg, po single dose measured up to 8 hrs; assay type: functional, organism-based; set-up: dose 100 mg/kg; conditions: PC-3
[26] = biological target: T4, Voltage-gated inwardly rectifying potassium channel KCNH2; assay: Inhibition of human ERG channel at 100 uM

Compound | IC50 [1] [nM] | clearance (Mus musculus [2]) [mL/min/kg] | Vd [3] [L/kg] | IC50 [4] [nM] | Vd [5] [L/kg] | Papp A→B [6] [×10⁻⁶ cm/s] | fraction unbound [7] | IC50 [8] [nM] | AUC [9] [µM·h] | fraction unbound [10] | fraction unbound [11] | clearance [12] [mL/min/kg] | hepatocyte CLint [13] [µL/min/1e6 cells] | logD [14] | clearance [15] [mL/min/kg] | IC50 [16] [nM] | IC50 [17] [nM] | clearance (Canis familiaris) [mL/min/kg] | IC50 [19] [nM] | bioavailability [20] [%] | further results
C[C@@H](Nc1cc(F)cc(F)c1F)c1cc(C(=O)N(C)C)cc2c(=O)cc(N3CCOCC3)oc12 | 41 | 99 | 2.2 | 8 | 1.7 | 16 | 0.43 | 1500 | 1.5 | 0.27 | 0.28 | 137 | < 5 | 2.3 | 28 | 900 | 6 | 16 | 140 | 42 | bioavailability [18]: 47%
C[C@@H](Nc1ccc(F)c(F)c1)c1cc(C(=O)N(C)C)cc2c(=O)cc(N3CCOCC3)oc12 | 32 | 57 |  | 7 | 1.7 | 6.5 | 0.34 | 2500 | 0.8 | 0.27 | 0.25 | 112 | < 3 | 1.9 |  | 2500 | 17 |  | 170 | 19 | 
CN(C)C(=O)c1cc(CNc2cc(F)cc(F)c2)c2oc(N3CCOCC3)cc(=O)c2c1 | 80 |  |  | 8 |  |  |  | 3200 |  |  |  |  | < 3 | 2.2 |  | 3200 | 35 |  | 93 |  | Ratio IC50 (BT-474): 100
C[C@@H](Nc1cc(F)cc(Cl)c1)c1cc(C(=O)N(C)C)cc2c(=O)cc(N3CCOCC3)oc12 | 28 | 147 |  |  | 3.5 | 11 | 0.14 | 210 | 0.8 | 0.06 | 0.04 | 134 | 12 | 2.8 |  | 170 |  |  | 25 | 23 | 
C[C@H]1CN(c2cc(=O)c3cc(C(=O)N(C)C)cc([C@@H](C)Nc4cc(F)cc(F)c4)c3o2)CCO1 | 12 | 53 | 2.5 | 4 | 2.2 | 14 | 0.2 | 140 | 3.3 | 0.14 | 0.12 | 76 | < 3 | 2.7 | 69 | 110 | 0.4 | 15 | 12 | 50 | bioavailability [18]: 5%
C[C@H](c1cc(C(=O)N(C)C)cc2c(=O)cc(N3CCOCC3)oc12)N(C)c1cc(F)cc(F)c1 | 73 | 37 | 2.2 |  | 2 | 42 | 0.16 | 3500 | 8.6 | 0.12 | 0.1 | 34 | < 4 | 2.4 | 27 | 3000 |  | 17 | 280 | 68 | bioavailability [18]: 31%; IC50 [21]: 19000 nM
C[C@@H](Nc1cccc(Cl)c1F)c1cc(C(=O)N(C)C)cc2c(=O)cc(N3CCOCC3)oc12 | 22 | 64 |  | 5 | 1.7 | 21 | 0.26 | 320 | 0.9 | 0.15 |  | 81 | < 3 | 2.3 |  | 500 | 20 |  | 28 | 19 | 
C[C@H](c1cc(C(=O)N(C)CCO)cc2c(=O)cc(N3CCOCC3)oc12)N(C)c1cc(F)cc(F)c1 | 53 |  |  |  |  | 7 | 0.23 | 1200 | 0.7 | 0.17 | 0.15 |  | < 3 | 2.1 |  | 4700 |  |  | 180 |  | 
C[C@H](c1cc(C(=O)N2CCC(O)CC2)cc2c(=O)cc(N3CCOCC3)oc12)N(C)c1cc(F)cc(F)c1 | 82 |  |  | 7 |  | 4.6 | 0.23 | 1600 | 0.8 | 0.17 | 0.18 |  | < 3 | 2.4 |  | 4800 | 12 |  | 370 |  | 
C[C@@H](Nc1cc(F)cc(F)c1)c1cc(C(=O)N(C)C)cc2c(=O)cc(N3CCOCC3)oc12 [AZD-8186] | 12 | 73 | 2.2 |  | 1.3 | 8 | 0.31 | 675 | 1.2 | 0.19 | 0.16 | 77 | 4 | 2.3 | 36 | 752 |  | 11 | 35 | 18 | inhibition (PC-3 [22]): Active; IC50 [23]: 17 nM; inhibition (PC-3 [24]): Active; inhibition (Mus musculus [25]): Active; inhibition (INH) [26]: Not Active; bioavailability [18]: 23%

Source: ChEMBL document CHEMBL3407416, “Discovery of (R)-8-(1-(3,5-difluorophenylamino)ethyl)-N,N-dimethyl-2-morpholino-4-oxo-4H-chromene-6-carboxamide (AZD8186): a potent and selective inhibitor of PI3Kβ and PI3Kδ for the treatment of PTEN-deficient cancers” (J Med Chem, 2015)
